For the experiment, the target named is T1, human estrogen receptor α (ERα) (Homo sapiens, UniProt P03372).
T1 sequence (P03372 302-552 limits assumed): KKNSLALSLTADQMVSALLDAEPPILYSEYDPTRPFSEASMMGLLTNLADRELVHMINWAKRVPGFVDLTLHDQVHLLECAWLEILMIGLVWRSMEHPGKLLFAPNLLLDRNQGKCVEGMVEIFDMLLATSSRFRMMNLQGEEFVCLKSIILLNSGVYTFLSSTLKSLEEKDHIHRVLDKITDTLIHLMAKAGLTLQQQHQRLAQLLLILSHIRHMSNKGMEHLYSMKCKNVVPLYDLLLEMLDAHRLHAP
Format: binding.

SMILES strings stand for the structures.

These results are taken from PMC10938262 (Science translational medicine, 2023).

For `C[C@]12CC[C@@H]3c4ccc(O)cc4CC[C@H]3[C@@H]1C[C@@H](F)[C@@H]2O` [FES, 16α-fluoroestradiol], the affinity, expressed as Ki, was 0.3 ± 0.1 nM.
